One compound from patent US11000535B2, “Anticancer composition and use thereof” (KAOHSIUNG MEDICAL UNIVERSITY, priority 2015, dated 2021) can be followed below.

For test [1], the system named is Huh7-GNMT cells. The test can be described thus: Sorafenib cell viability in Huh7-GFP and Huh7-GNMT cells. The conditions noted are these: 2.5 μM sorafenib. Format: cell-based, human. The method, then:
The cell viability is determined after Huh7-GFP cells capable of expressing Green fluorescent protein (GFP) and Huh7-GNMT cells are treated with an increased concentration of sorafenib.
Please refer to FIG. 26, which illustrates the effect of sorafenib on cell proliferation, wherein numerals 1 and 2 denote Huh7-GFP cells and Huh7-GNMT respectively.
Stablized cells comprises Huh7-GFP, Huh7-GNMT, Huh7-shGNMT, Huh7-shLacZ and Huh7-shMyc, which are established via the lentivirus system and cultured in Dulbecco's Modified Eagle's Medium (DMEM) (Gibco BRL, Grand Island, N.Y., USA) with 1 μg/ml puromycin.

Test [2] deals with Huh7 cells. The test can be described thus: Combination treatment, Huh7 xenograft tumor volume. Format: in vivo, NOD-SCID mice. To be noted: sorafenib 10 mpk; F3-6 25 mpk or 300 mpk. The method, then:
Please refer to FIG. 29, which illustrates the tumor volume, wherein the numeral 1 is for a physiological saline solution, the numeral 2 is for F3-6 (25 mg/kg (mpk)), the numeral 3 is for F3-6 (300 mpk), the numeral 4 is for sorafenib (10 mpk), the numeral 5 is for F3-6 (25 mpk) with sorafenib (10 mpk), and the numeral 6 is for PGG (25 mpk) with sorafenib (10 mpk).
To assess the combinatory effect of drugs, female nonobese diabetic/severe combined immunodeficiency (NOD-SCID) mice lacking thymus gland were injected with Huh7 cells (2×10^6).
Mice are administered F3-6 (25 mpk), F3-6 (300 mpk) or PGG (25 mpk) three times per week, and sorafenib (10 mpk) twice per week alone or combined with F3-6 or PGG as illustrated in FIG. 29.
(§1) Tumor growth was monitored (every day or three times per week) by using Vernier caliper measurement of the length (L) and width (W) of the tumor.
(§2) Tumor volume (TV) was calculated by using the formula volume=(L×W^2)/2.

The subject of test [3] is Huh7-GFP and Huh7-GNMT transfected cells. The test can be described thus: Sorafenib in Huh7-GFP / Huh7-GNMT xenograft. It is filed as in vivo, NOD-SCID mice. The procedure: To assess the effect of additional GNMT to administering sorafenib, female nonobese diabetic/severe combined immunodeficiency (NOD-SCID) mice lacking thymus gland were subcutaneously injected with […] or Huh7-GFP cells. The mice were randomly grouped and treated with a sorafenib or a physiological saline. Overexpression of GNMT inhibits cancer cell proliferation compared to the tumor due to Huh7-GFP cells.
Please refer to FIG. 27, which illustrates that the tumor cells are treated with the compound of sorafenib, wherein the numeral 1 is for Huh7-GFP transfected cells administered with a physiological saline, the numeral 2 is for Huh7-GNMT transfected cells administered with a physiological saline, the numeral 3 is for Huh7-GFP transfected cells administered with 10 mg/kg sorafenib and the numeral 4 is for Huh7-GNMT transfected cells administered with 10 mg/kg sorafenib. […] Based on the above results, a survey for the effect of PGG combined with sorafenib as a combination therapy to liver cancer was conducted. […]
as §1, §2

`CNC(=O)c1cc(Oc2ccc(NC(=O)Nc3ccc(Cl)c(C(F)(F)F)c3)cc2)ccn1` [sorafenib, 4-[4-[[4-chloro-3-(trifluoromethyl)phenyl]carbamoylamino]phenoxy]-N-methyl-pyridine-2-carbox-amide]: in test [1], the “viability of GNMT stable cells compared to GFP control cells” value is “decreased significantly”. Further, in test [2], the “tumor growth, single drug” value is “effective in inhibiting the tumor growth”. In addition, the “size of the tumor, Huh7-GNMT transfected cells, compared with other groups” value in test [3] (10 mg/kg) is “reducing the size of the tumor is statistically significant”. For the same compound, the tumor growth entry in test [3] (oral 10 mpk, three days a week) is listed as “significantly inhibits tumor growth”.
